Assay results taken from patent publication US9394335B2, “Esters of glycyrrhetinic acid, preparation and cosmetic applications thereof” (GIULIANI S.P.A., priority 2012, dated 2016).

Key:
[1] = system: expression of the TNF-α gene in NCTC 2544 human keratinocytes; experiment: Inflammation assessment assay: expression of the TNF-α gene by RT-PCR in LPS-treated cells; assay type: cell-based; settings: for anti-inflammatory effect (inhibiting the expression of the TNF-α gene): 2.5-5-10 μM, after 48 hrs of treatment; for anti-inflammatory effect (inhibiting the expression of the TNF-α gene) / inhibition of the expression of the TNF-α gene: LPS 5 μg/ml; for inhibition of the expression of the TNF-α gene: 48 hrs of treatment, compared to cells treated only with LPS
Procedure: The NCTC 2544 cells were treated at 37° C. for 48 hours, at 5% CO2, with: basal culture medium, containing 2.5% fetal bovine serum (negative control), with: basal culture medium, containing 2.5% fetal bovine serum supplemented with LPS (5 μg/ml) (positive control), with: basal culture medium, containing 2.5% fetal bovine serum supplemented with LPS (5 μg/ml) and 18-β-glycyrrhetinic acid (18-β) at a concentration of 2.5-5-10 μM, with: basal culture medium, containing 2.5% fetal bovine serum supplemented with LPS (5 μg/ml), and POLY-GLY-S at a concentration of 2.5-5-10 μM. The results are expressed as a percentage of inflammation as compared to cells treated with LPS. The values represent the mean values of 2 experiments in duplicate.
The anti-inflammatory effects of ester having formula (Ia) of Example 1 (referred to as ‘POLY-GLY-S’ for shortness of description) have been investigated in an in vitro inflammation model, on NCTC2544 human keratinocytes and using lipopolysaccharide (LPS) from E. coli as mediator of inflammatory state. The effect of derivative in the models used has been compared to that of 18-β-glycyrrhetic acid (referred to as ‘18-β’ for shortness of description).
Furthermore, the in vitro inflammatory potential of POLY-GLY-S towards a positive control (cells treated with 5 μg/ml lipopolysaccharide) was determined. The data obtained have been compared to those obtained, in the same experimental model, using 18-β.
Inflammation Assessment Assay
The expression of the TNF-α gene on NCTC 2544 cells was assessed by RT-PCR.
The gene expression analysis implies four steps: • 1. Cell treatment with active compounds for 48 hrs; • 2. RNA extraction; • 3. cDNA reverse transcription; • 4. quantitative […].
In experimental conditions, in connection with the results obtained in the previous MIT assay, POLY-GLY-S and 18-β have been tested at a concentration of 20 μM (final concentration in the culture medium). Both positive control and negative control have been tested.
When the cells (NCTC 2544 human keratinocytes) had reached about 80% confluence, they were removed with trypsin/EDTA and seeded at a density of 1×10^6 cells/ml in 12-well plates and then incubated at 37° C., 5% CO2 (24 h).
When the cells had reached about 80% confluence, the complete medium was removed; cells were washed with PBS 1× and incubated in EMEN (EBSS) with 2.5% FBS, supplemented with 2 mM L-glutamine, 1% NEAA solution and 1% antibiotic mixture at 37° C., 5% CO2 for at least 4 hrs.
POLY-GLY-S and 18-β were dissolved in EMEN supplemented with 2.5% FBS, 2 mM L-glutamine, 1% NEAA solution and 1% penicillin (10,000 U/ml)/streptomycin (10,000 μg/ml) mixture.
Controls only containing culture medium (negative control) and culture medium plus LPS (5 μg/ml) (positive control) have been included in each plate.
Cells were exposed to increasing concentrations of compounds to be tested, i.e. 2.5-5-10 μM.
To each well LPS at a concentration of 5 μg/ml was added. Each sample was tested in duplicate.
Then cells were incubated at 37° C., 5% CO2 for 24 hrs.
Total RNA was extracted from cells using a single homogeneous solution Tri-reagent (Sigma Aldrich) to isolate RNA following manufacturer's instructions.
The extracted and quantified total RNA was amplified using the “High-Capacity cDNA Reverse transcription Kit” (Applied Biosystems).
RT-PCR was carried out using TaqMan linear probes (Applied Biosystems). These probes are the most used and published detection system for qPCR applications. In stock probes and primer were selected based on previous specific bibliographic studies.
The relative quantification method was used where the gene relative concentration of interest (target) is compared with unknown samples to a calibrator or control sample (untreated cells).
10 μl TaqMan 2× Gene Expression master Mix and 1 μl 20× TaqMan Gene Expression were added to cDNA. […]

[2] = system: NCTC 2544 human keratinocytes; experiment: MTT assay, cell viability; assay type: cell-based; settings: for tolerability by NCTC2544 human keratinocytes: 2.5-5 and 10 μM
Procedure: The data represent mean values ±standard deviation. Each treatment was carried out in duplicate.
The data are expressed as mean values ±standard deviation. Each treatment was carried out in duplicate.
The MTT test is useful to assess in vitro cell viability following the treatment with diluted compounds. The MTT method has been used as an indirect measure of cell viability.
The effects on NCTC 2544 cell proliferation from compounds 18-β and POLY-GLY-S at different concentrations have been examined.
The cells have been plated at low densities and treated with different concentrations of active compounds and negative control, in culture medium EMEM, without phenol red supplemented at 10% with FCS, 2 mM L-glutamine, 1% NEAA solution and 1% antibiotic mixture for 24, 48 and 72 hours and cell viability has been assessed by the MTT assay. The cell viability percentage compared to control (FIGS. 1-2) has been calculated after 24, 48 and 72 hours of incubation. […] The same results have been obtained after a prolonged cells exposure (48-72 hours) to tested compounds for all the considered concentrations.

[3] = cited from earlier work
[4] = 24 hours of incubation, all tested concentrations (18-β 2.5-80 μM, ester (Ia) 0.625-80 μM)
[5] = prolonged exposure 48-72 hours, all considered concentrations

SMILES	anti-inflammatory effect (inhibiting the expression of the TNF-α gene) [1]	tolerability by NCTC2544 human keratinocytes [2]	cytotoxic effect on NCTC2544 compared to control (MTT, % viability) [2, 4]	cytotoxic effect on NCTC2544 compared to control (MTT, % viability) [2, 5]	solubility in ethanol ([3]; ethanol)	solubility in oils ([3]; oils)	solubility in water ([3]; water)	inhibition of the expression of the TNF-α gene ([1]; 2.5 μM) [%]	inhibition of the expression of the TNF-α gene ([1]; 5 μM) [%]	inhibition of the expression of the TNF-α gene ([1]; 10 μM) [%]	reduction of the expression of the TNF-α gene ([1]; all the concentrations assayed, 48 hours of incubation (conclusions))
CC1(C)[C@@H](O)CC[C@]2(C)[C@H]3C(=O)C=C4[C@@H]5C[C@@](C)(C(=O)O)CC[C@]5(C)CC[C@@]4(C)[C@]3(C)CC[C@@H]12 [18-β, 18-Beta glycyrrhetinic acid, reference compound]	no longer had anti-inflammatory effect	well tolerated	none	same results	soluble	insoluble	insoluble				
CC1(C)[C@@H](O)CC[C@]2(C)[C@H]3C(=O)C=C4[C@@H]5C[C@@](C)(C(=O)OCC(O)C(O)C(O)C(O)COCC(O)COCC(O)COCC(O)CO)CC[C@]5(C)CC[C@@]4(C)[C@]3(C)CC[C@@H]12 (stereo partly drawn) [POLY-GLY-S, glycyrrhetinic ester of polyglycerol-3-sorbitol]	significantly effective	well tolerated	none	same results				43.99	40.71	54.36	at least 50%
